Results from ChEMBL document CHEMBL2074289, “Inhibition of the human organic anion transporter 1 by the caffeine metabolite 1-methylxanthine” (Biochem Biophys Res Commun, 2004).

Biological target: T1, OAT1 (Solute carrier family 22 member 6, SLC22A6) (Homo sapiens, UniProt Q4U2R8)
T1 sequence (Q4U2R8 whole entry): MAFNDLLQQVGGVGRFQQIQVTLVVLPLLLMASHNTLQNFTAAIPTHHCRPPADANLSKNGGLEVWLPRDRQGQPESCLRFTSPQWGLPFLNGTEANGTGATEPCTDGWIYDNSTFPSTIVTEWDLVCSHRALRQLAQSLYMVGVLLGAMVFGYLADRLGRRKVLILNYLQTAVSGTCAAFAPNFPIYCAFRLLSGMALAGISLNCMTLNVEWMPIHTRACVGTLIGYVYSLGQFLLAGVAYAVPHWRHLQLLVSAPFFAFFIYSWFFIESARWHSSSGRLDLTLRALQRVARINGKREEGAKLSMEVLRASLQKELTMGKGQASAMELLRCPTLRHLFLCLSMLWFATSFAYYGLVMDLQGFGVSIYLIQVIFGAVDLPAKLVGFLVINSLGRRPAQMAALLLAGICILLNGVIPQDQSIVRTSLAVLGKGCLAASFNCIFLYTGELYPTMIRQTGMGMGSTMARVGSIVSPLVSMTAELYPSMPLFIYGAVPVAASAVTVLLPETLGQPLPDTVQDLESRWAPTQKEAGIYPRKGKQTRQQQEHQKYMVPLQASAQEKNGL
Assay: TP_TRANSPORTER: inhibition of 6-Carboxyfluorescein uptake by 1-methylxanthine at a concentration of 500uM in OAT1-expressing cell
Format: functional
Set-up: scale not given: the % may be the effect or the level left
Settings: OAT1-expressing cells, probe 6-Carboxyfluorescein; read-out: Activity

An activity at 500 µM of 50% was found for Cn1c(=O)[nH]c2nc[nH]c2c1=O [1-METHYLXANTHINE] in this work.
